Test results reported in patent US9526795B2, “N-BOC-dendrimers and their conjugates” (Annam Biosciences, LLC, priority 2012, dated 2016).

Tested on: ovarian cancer cell lines
Experiment: doxorubicin-dendrimer-folate uptake in ovarian cancer cells
Assay type: cell-based
Conditions: FIG. 8; compared with doxorubicin and doxorubicin-(folate)1; folate-quenching correction
Experimental: Ovarian cancer cells were purchased from ATCC (CRL-6322, ATCC American Type Culture Collection, Rockville, Md.) and were grown in Dulbecco's modified Eagle's medium (DMEM) with 10% fetal bovine serum and 100 units/mL penicillin. The cells were grown at 37° C. in 5% CO2 environment. The culture medium was removed and discarded. The cells were rinsed with Dulbecco Phosphate Buffer Solution (DPBS), Trypsin-ethylenediaminetetra-acetic acid (EDTA) solution (0.5 ml) was added, and the cells were observed under an inverted microscope to make sure that they were dispersed. Complete growth medium (6.0 to 8.0 ml) was added, and the cells were aspirated by gently pipetting. The cell suspension in appropriate aliquots was transferred to new culture plates. The cells were allowed to grow at 37° C. in 5% CO2 for 24 hours before further experiments. […]
The evaluation of doxorubicin-dendrimer-folate uptake is conducted by using a literature procedure (Kim D, Lee E S, Oh K T, Gao Z G, Bae Y H. Doxorubicin-loaded polymeric micelle overcomes multidrug resistance of cancer by double-targeting folate receptor and early endosomal pH. Small. 2008 November; 4(11):2043-50) and folate-quenching correction was adjusted based on a literature procedure (Husseini G. A., 2012. Folic Acid Quenches Doxorubicin Fluorescence. Advanced Science Letters. 7:726).

COc1cccc2c1C(=O)c1c(O)c3c(c(O)c1C2=O)C[C@@](O)(/C(CO)=N/NC(=O)CCCC(=O)NCCCOCCOCCOCCCN(CCC(=O)NCCNC(=O)CCC(NC(=O)c1ccc(NCc2cnc4c(=O)[nH]c(N)nc4n2)cc1)C(=O)O)CCC(=O)NCCNC(=O)CCC(NC(=O)c1ccc(NCc2cnc4c(=O)[nH]c(N)nc4n2)cc1)C(=O)O)C[C@H]3O[C@H]1C[C@@H](N)[C@@H](O)[C@@H](C)O1 (stereo partly shown) [doxorubicin-dendrimer-(folate)2, doxorubicin-hydrazine-glutaric acid-PEG3-dendrimer-2-folates]
uptake by ovarian cancer cell lines: superior uptake
